| SMILES | melting point |
| --- | --- |
| O=C1NN=C(C2CCCC2)C1=Cc1c[nH]c2ccccc12 [Example 263, 3-Cyclopentyl-4-[(indol-3-yl)methylene]-2-pyrazolin-5-one] | 300 to 304 °C |
| CC1(C)C(C2=NNC(=O)C2=Cc2c[nH]c3ccccc23)C1(C)C [Example 264, 4-[(Indol-3-yl)methylene]-3-(2,2,3,3-tetramethylcyclopropyl)-2-pyrazolin-5-one] | 296 to 298 °C |
| CC1CC1C1=NNC(=O)C1=Cc1c[nH]c2ccccc12 (stereo not drawn) [Example 265, 4-[(Indol-3-yl)methylene]-3-(2-methylcyclopropyl)-2-pyrazolin-5-one] | 294 to 296 °C |
| O=C1NN=C(C2CCCCC2)C1=Cc1cn(CCCCO)c2ccccc12 [Example 266, 3-Cyclohexyl-4-{[1-(4-hydroxybutyl)indol-3-yl]methylene}-2-pyrazolin-5-one] | 226 to 227 °C |
| O=C1NN=C(c2ccncc2)C1=Cc1cn(CCCCO)c2ccccc12 [Example 267, 4-{[1-(4-Hydroxybutyl)indol-3-yl]methylene}-3-(4-pyridyl)-2-pyrazolin-5-one] | 224 to 225 °C |
| O=C1NN=C(c2nc3ccccc3s2)C1=Cc1c[nH]c2ccccc12 [Example 268, 3-(Benzothiazol-2-yl)-4-[(indol-3-yl)methylene]-2-pyrazolin-5-one] | > 300 °C |
| O=C1NN=C(c2ccccn2)C1=Cc1c[nH]c2ccccc12 [Example 269, 4-[(Indol-3-yl)methylene]-3-(2-pyridyl)-2-pyrazolin-5-one] | 278 to 280 °C |
| CN(C)C1=NNC(=O)C1=Cc1c[nH]c2ccccc12 [Example 270, 3-Dimethylamino-4-[(indol-3-yl)methylene]-2-pyrazolin-5-one] | 258 to 260 °C |
| O=C1NN=C(c2ccc[nH]2)C1=Cc1c[nH]c2ccccc12 [Example 271, 4-[(Indol-3-yl)methylene]-3-(pyrrol-2-yl)-2-pyrazolin-5-one] | 300 to 302 °C |
| COc1ccc2nc(C3=NNC(=O)C3=Cc3c[nH]c4ccccc34)sc2c1 [Example 272, 4-[(Indol-3-yl)methylene]-3-(6-methoxybenzothiazol-2-yl)-2-pyrazolin-5-one] | > 300 °C |
| Cn1cc(C=C2C(=O)NN=C2C2CC2)c2ccccc21 [Example 273, 3-Cyclopropyl-4-[(1-methylindol-3-yl)methylene]-2-pyrazolin-5-one] | 245 to 247 °C |
| Cc1cccc2c(C=C3C(=O)NN=C3C3CC3)c[nH]c12 [Example 274, 3-Cyclopropyl-4-[(7-methylindol-3-yl)methylene]-2-pyrazolin-5-one] | 286 to 288 °C |
| Cn1cc(C=C2C(=O)NN=C2c2cccnc2)c2ccccc21 [Example 275, 4-[(1-Methylindol-3-yl)methylene]-3-(3-pyridyl)-2-pyrazolin-5-one] | 230 to 232 °C |
| CCOC(=O)C1=NNC(=O)C1=Cc1c[nH]c2ccccc12 [Example 283, 3-Ethoxycarbonyl-4-[(indol-3-yl)methylene]-2-pyrazolin-5-one] | 250 °C (dec.) |
| COC(=O)CCC1=NNC(=O)C1=Cc1c[nH]c2ccccc12 [Example 284, 4-[(Indol-3-yl)methylene]-3-(2-methoxycarbonylethyl)-2-pyrazolin-5-one] | 267 to 269 °C |
| O=C1NN=C(C2CCC2)C1=Cc1cn(CCCCO)c2ccccc12 [Example 286, 3-Cyclobutyl-4-{[1-(4-hydroxybutyl)indol-3-yl]methylene}-2-pyrazolin-5-one] | 220 to 222 °C |
| Cn1cc(C=C2C(=O)NN=C2C2CC2)c2ccc(C(=O)O)cc21 [Example 287, 4-[(6-Carboxy-1-methylindol-3-yl)methylene]-3-cyclopropyl-2-pyrazolin-5-one] | 237 to 240 °C (dec.) |

| SMILES | melting point |
| --- | --- |
| COc1ccc2c(c1)c(C=C1C(=O)NN=C1C1CC1)cn2C [Example 288, 3-Cyclopropyl-4-[(5-methoxy-1-methylindol-3-yl)methylene]-2-pyrazolin-5-one] | 236 to 238 °C |
| Cn1cc(C=C2C(=O)NN=C2c2cnccn2)c2ccccc21 [Example 289, 4-[(1-Methylindol-3-yl)methylene]-3-pyrazinyl-2-pyrazolin-5-one] | 263 to 265 °C |
| Cc1cccc2c(C=C3C(=O)NN=C3C3CC3)cn(C)c12 [Example 290, 3-Cyclopropyl-4-[(1,7-dimethylindol-3-yl)methylene]-2-pyrazolin-5-one] | 258 to 260 °C |
| Cn1cc(C=C2C(=O)NN=C2C2CCOC2)c2ccccc21 (stereo not drawn) [Example 291, 4-[(1-Methylindol-3-yl)methylene]-3-(tetrahydrofuran-3-yl)-2-pyrazolin-5-one] | 208 to 210 °C |
| Cn1cc(C=C2C(=O)NN=C2NC2CC2)c2ccccc21 [Example 292, 3-Cyclopropylamino-4-[(1-methylindol-3-yl)methylene]-2-pyrazolin-5-one] | 160 to 164 °C (dec.) |
| CC(C)OC1=NNC(=O)C1=Cc1cn(C)c2cc(C(=O)O)ccc12 [Example 293, 4-[(6-Carboxy-1-methylindol-3-yl)methylene]-3-isopropoxy-2-pyrazolin-5-one] | 330 to 332 °C |
| Cc1cccc2c(C=C3C(=O)NN=C3OC(C)C)cn(C)c12 [Example 294, 4-[(1,7-Dimethylindol-3-yl)methylene]-3-isopropoxy-2-pyrazolin-5-one] | 245 to 247 °C |
| COc1ccc2c(c1)c(C=C1C(=O)NN=C1OC(C)C)cn2C [Example 295, 3-Isopropoxy-4-[(5-methoxy-1-methylindol-3-yl)methylene]-2-pyrazolin-5-one] | 238 to 239 °C |
| Cn1cc(C=C2C(=O)NN=C2Nc2ccc(F)cc2)c2ccccc21 [Example 296, 3-(4-Fluorophenylamino)-4-[(1-methylindol-3-yl)methylene]-2-pyrazolin-5-one] | 218 to 219 °C |
| Cn1cc(C=C2C(=O)NN=C2NC(=O)C(F)(F)F)c2ccccc21 [Example 297, 4-[(1-Methylindol-3-yl)methylene]-3-trifluoroacetamido-2-pyrazolin-5-one] | 252 to 253 °C |
| Cn1cc(C=C2C(=O)NN=C2CCc2ccc(N)cc2)c2ccccc21 [Example 298, 3-(4-Aminophenylethyl)-4-[(1-methylindol-3-yl)methylene]-2-pyrazolin-5-one] | 192 to 193 °C |
| Cn1cc(C=C2C(=O)NN=C2N)c2ccccc21 [Example 299, 3-Amino-4-[(1-methylindol-3-yl)methylene]-2-pyrazolin-5-one] | 246 to 247 °C |
| O=C1NN=C(CCc2ccc(Cl)cc2)C1=Cc1c[nH]c2ccccc12 [Example 300, 3-(4-Chlorophenylethyl)-4-[(indol-3-yl)methylene]-2-pyrazolin-5-one] | 271 to 272 °C |
| CCOC1=NNC(=O)C1=Cc1cn(C)c2ccccc12 [Example 301, 3-Ethoxy-4-[(1-methylindol-3-yl)methylene]-2-pyrazolin-5-one] | 194 to 196 °C |
| Cn1cc(C=C2C(=O)NN=C2c2ccno2)c2ccccc21 [Example 302, 3-(5-Isoxazolyl)-4-[(1-methylindol-3-yl)methylene]-2-pyrazolin-5-one] | 271 to 272 °C |
| Cn1cc(C=C2C(=O)NN=C2C(C)(C)C)c2ccccc21 [Example 303, 4-[(1-Methylindol-3-yl)methylene]-3-tert-butyl-2-pyrazolin-5-one] | 201 to 203 °C |

Source: US7060822B1, “2-pyrazolin-5-ones” (Abbott GmbH & Co. KG, priority 1999, dated 2006)
